Results from patent US20210380525A1, “COMPOSITIONS AND METHODS FOR THE TREATMENT OF PARKINSON'S DISEASE” (Cellix Bio Private Limited, priority 2018, published 2021).

Key:
[1] = Pharmacokinetic study: plasma L-Dopa after single subcutaneous administration of CLX-SYN-G107B-C01; type: in vivo, Sprague-Dawley rats; conditions: lowest tested dose of 50 mg/kg s.c. compared to other doses, SD rats
Procedure: (§1) The objective of this study was to determine the pharmacokinetics of L-Dopa after a single subcutaneous administration of CLX-SYN-G107B-C01 at the doses of 50, 150 and 300 mg/Kg, in male Sprague-Dawley (SD) rats.
(§2) Three groups of 5-male rats in each (age 8-10 weeks; body weight range 198-226 g) were assigned to receive CLX-SYN-G107B-C01 at the doses of 50, 150 and 300 mg/kg, by subcutaneous route. CLX-SYN-G107B-C01 was formulated in Propylene glycol and PEG-300 for subcutaneous administration. The dose volume was 2 ml/kg.
The blood samples (0.2 mL/time point) from the animals were collected at 0 (pre-dose), 0.083, 0.25, 0.5, 1, 2, 4, 8, 10, 24, 48 and 72 h post dosing after subcutaneous administration. The plasma samples were analyzed for L-Dopa using a fit-for-purpose LC-MS/MS method.

[2] = Clinical signs of toxicity in the pharmacokinetic study; type: in vivo; conditions: single s.c. dose 50, 150 and 300 mg/Kg, male SD rats
Procedure: as §1, §2

CCCCCCC(=O)N[C@@H](Cc1ccc(O)c(O)c1)C(=O)OCC(COC(=O)CCCCCC)OC(=O)CCCCCC (stereo partly drawn) [CLX-SYN-G107B-C01, 3-(((S)-3-(3,4-dihydroxyphenyl)-2-heptanamidopropanoyl)oxy)propane-1,2-diyl diheptanoate]
Bioavailability (comparison of doses) [1]: enhanced bioavailability with low dose
Clinical signs of toxicity [2]: No clinical signs of toxicity were observed
